What was measured:
MDA-MB-231 [1] = experiment: drug sensitivity score (DSS), cell viability CellTiter-Glo; higher = more sensitive; extreme values may be limits of the assay; conditions: 72 h
MDA-MB-231 [2] = experiment: drug sensitivity score (DSS), cytotoxicity CellTox Green; higher = more cytotoxic; extreme values may be limits of the assay; conditions: 72 h
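For drug sensitivity score (DSS), cytotoxicity CellTox Green in this document: DSS summarises each dose–response curve by combining IC50, EC50, maximal inhibition and efficacy across drug concentrations.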

SMILES	drug sensitivity score (MDA-MB-231 [1]; shRNA: shPPFIA1_1) [DSS]	drug sensitivity score (MDA-MB-231 [1]; shRNA: shScramble) [DSS]	drug sensitivity score (MDA-MB-231 [2]; shRNA: shPPFIA1_1) [DSS]	drug sensitivity score (MDA-MB-231 [2]; shRNA: shScramble) [DSS]
CN(C[C@@H]1COCCO1)S(=O)(=O)Nc1ccc2ccc3ncc(-c4cnn(C)c4)cc3c(=O)c2c1 [MK-2461]	0	3.6	0	0
O=C(c1cccc(Cl)c1F)N1CCN(Cc2cccc(Nc3nccs3)n2)CC1 [MK-8745]	0.9	0.3	0.5	0.3
Cn1cc(-c2cnn3c(N)c(Br)c([C@@H]4CCCNC4)nc23)cn1 [MK-8776]	0	2.9	0	0
Cc1cnc(-c2ccccc2C(C)C)nc1NCc1ccc(-n2ccnn2)cc1 [ML323]	0	1.7	0	0
CC(C)n1nc(-c2ccc3oc(N)nc3c2)c2c(N)ncnc21 [MLN-0128]	0.2	5	0	0
O=C(O)c1ccc(Nc2ncc3c(n2)-c2ccc(Cl)cc2C(c2c(F)cccc2F)=NC3)cc1 [MLN-8054]	0.1	2.2	0	0
O=C(Nc1cccc(NC(=O)c2cccc(O)c2O)c1)c1cccc(O)c1O [MST-312]	8.6	7.6	0	0
CNC(=O)[C@@H](NC(=O)[C@H](CC(C)C)[C@H](O)C(=O)NO)C(C)(C)C [Marimastat]	0.2	0	0	0
Cc1ccc(NC(=O)c2ccc(CN3CCN(C)CC3)cc2)cc1Nc1nc(-c2cccnc2)cs1 [Masitinib]	0.2	2.9	0.2	0.1
CC(=O)O[C@]1(C(C)=O)CC[C@H]2[C@@H]3C=C(C)C4=CC(=O)CC[C@]4(C)[C@H]3CC[C@@]21C [Megestrol acetate]	0	0	0	0
N[C@@H](Cc1ccc(N(CCCl)CCCl)cc1)C(=O)O [Melphalan]	0	0.4	0	0
CCN(CC)CCCC(C)Nc1c2ccc(Cl)cc2nc2ccc(OC)cc12 (stereo not given) [Mepacrine]	18.6	21.1	18.5	18.6
S=c1[nH]cnc2nc[nH]c12 [Mercaptopurine]	5.1	12	0	0
Cc1ccc(C(=O)Nc2ccc(Oc3cc4cnn(C)c4cc3-c3cn[nH]c3)c(F)c2)c(=O)n1-c1ccc(F)cc1 [Merestinib]	9	0	0	0
CN(C)C(=N)NC(=N)N [Metformin]	0	0	0	0

From the supplement of paper PMC10920090
